Results from the NIST ThermoML archive (doi:10.1016/j.fluid.2013.06.050).
± gives the expanded uncertainty stated by the source.

How the values were obtained:
[1] = xn = mol fraction of the nth substance listed; conditions: 298.15 K, 101 kPa, Liquid
[2] = refractive index (Na D-line) (dimensionless); xn = mol fraction of the nth substance listed; conditions: 298.15 K, 101 kPa, Liquid, Standard Abbe refractometry

OCCCCO [1,4-butanediol] + C[N+](C)(C)CCO.[Cl-]
[1], vibrating tube
Conditions	mass density [kg/m3]
x2 = 0.25	1061 ± 12
x2 = 0.28	1067 ± 12
x2 = 0.34	1073.1 ± 12

[2]
Conditions	refractive index
x2 = 0.25	1.4656 ± 0.0011
x2 = 0.28	1.468 ± 0.0011
x2 = 0.34	1.4718 ± 0.0011

CCN(CC)CCO.Cl [2-(diethylamino)ethanol hydrochloride] + OCC(O)CO
[1], vibrating tube
Conditions	mass density [kg/m3]
x1 = 0.2	1220.4 ± 12
x1 = 0.25	1205.7 ± 12
x1 = 0.34	1183.6 ± 12

[2]
Conditions	refractive index
x2 = 0.2	1.4812 ± 0.0011
x2 = 0.25	1.4825 ± 0.0011
x2 = 0.34	1.4853 ± 0.0011

CCN(CC)CCO.Cl [2-(diethylamino)ethanol hydrochloride] + OCCO
[1], Vibrating tube method
Conditions	mass density [kg/m3]
x1 = 0.2	1103.7 ± 12
x1 = 0.25	1101.8 ± 12
x1 = 0.28	1100.6 ± 12

[2]
Conditions	refractive index
x1 = 0.2	1.4574 ± 0.0011
x1 = 0.25	1.462 ± 0.0011
x1 = 0.28	1.465 ± 0.0011

C[N+](C)(C)CCO.[Cl-] [choline chloride] + OCC(O)CO
[1], vibrating tube
Conditions	mass density [kg/m3]
x1 = 0.25	1203.5 ± 12
x1 = 0.34	1192.4 ± 12
x1 = 0.5	1162.2 ± 12

[2]
Conditions	refractive index
x1 = 0.25	1.4818 ± 0.0011
x1 = 0.34	1.4852 ± 0.0011
x1 = 0.5	1.491 ± 0.0011

C[N+](C)(C)CCO.[Cl-] [choline chloride] + OCCO
[1], vibrating tube
Conditions	mass density [kg/m3]
x1 = 0.28	1117.3 ± 12
x1 = 0.34	1117.7 ± 12
x1 = 0.36	1118.4 ± 12

[2]
Conditions	refractive index
x1 = 0.28	1.4611 ± 0.0011
x1 = 0.34	1.465 ± 0.0011
x1 = 0.36	1.4678 ± 0.0011

C[P+](c1ccccc1)(c1ccccc1)c1ccccc1.[Br-] [methyltriphenylphosphonium bromide] + OCC(O)CO
[1], Vibrating tube method
Conditions	mass density [kg/m3]
x1 = 0.2	1289.3 ± 12
x1 = 0.25	1298 ± 12
x1 = 0.34	1307.1 ± 12

[2]
Conditions	refractive index
x1 = 0.2	1.5597 ± 0.0011
x1 = 0.25	1.5715 ± 0.0011
x1 = 0.34	1.5917 ± 0.0011

C[P+](c1ccccc1)(c1ccccc1)c1ccccc1.[Br-] [methyltriphenylphosphonium bromide] + OCCO
[1], Vibrating tube method
Conditions	mass density [kg/m3]
x1 = 0.16	1220.2 ± 12
x1 = 0.2	1233 ± 12
x1 = 0.25	1250.4 ± 12

[2]
Conditions	refractive index
x1 = 0.16	1.5398 ± 0.0011
x1 = 0.2	1.553 ± 0.0011
x1 = 0.25	1.5678 ± 0.0011

C[P+](c1ccccc1)(c1ccccc1)c1ccccc1.[Br-] [methyltriphenylphosphonium bromide] + OCCOCCOCCO
[1], Vibrating tube method
Conditions	mass density [kg/m3]
x1 = 0.16	1186 ± 12
x1 = 0.2	1199.2 ± 12
x1 = 0.25	1216.4 ± 12

[2]
Conditions	refractive index
x1 = 0.16	1.5178 ± 0.0011
x1 = 0.2	1.5263 ± 0.0011
x1 = 0.25	1.5417 ± 0.0011
